Paper PMC7199514 (Frontiers in Chemistry, 2020)

How the values were obtained:
[1] = test system: calf thymus DNA (ct-DNA); assay: Competitive displacement of Hoechst 33342 from ct-DNA by fluorescence titration (minor groove binding); conditions: for affinity in minor groove binding relative to intercalation with DNA: Ksv Hoechst vs Ksv EB; for Ksv (Stern–Volmer quenching constant), replacing Hoechst from ct-DNA: Tris-HCl pH 7.4, 310 K, λex = 370 nm
Procedure: (§1) Complexes 2 and 4 were dissolved in DMSO to yield a panel of 0.25, 0.5, 1.0, 1.5, 2.0, 3.0, 4.0, and 5.0 mM solutions. The calf thymus DNA (ct-DNA) was dissolved in Tris-HCl buffer (pH = 7.4) to give a […] solution. Ethidium bromide (EB) (10 mM, 2 μl) or Hoechst 33342 (4 mM, 5 μl) and ct-DNA ([…], 978 or 975 μl) was incubated at 310 K for 0.5 h. Then the DMSO solution of complexes (20 μl) was added to the resulting solution and kept incubated. After 2 h, each reaction mixture was measured on an F-4500 fluorescence spectrophotometer (HITACHI) with excitation wavelength at 500 nm and emission spectra from 520 to 700 nm for EB mixed solution and excitation wavelength at 370 nm and emission spectra from 400 to 650 nm for Hoechst 33342 mixed solution. A modified Stern–Volmer plot (Sarwar et al., [2015]) was employed to evaluate the affinity of complexes toward DNA.

[2] = molecular target: T1, EGFR (kinase domain only) (Homo sapiens, UniProt P00533); assay: EGFR inhibition by ELISA; type: biochemical; conditions: ELISA in the presence of 200 μM of ATP
T1 construct: mixed with as-prepared EGFR (kinase domain only) solution; purchased Cell Signaling Technology, Inc. (assay kit); 7909
T1 sequence (P00533 712-979 limits assumed): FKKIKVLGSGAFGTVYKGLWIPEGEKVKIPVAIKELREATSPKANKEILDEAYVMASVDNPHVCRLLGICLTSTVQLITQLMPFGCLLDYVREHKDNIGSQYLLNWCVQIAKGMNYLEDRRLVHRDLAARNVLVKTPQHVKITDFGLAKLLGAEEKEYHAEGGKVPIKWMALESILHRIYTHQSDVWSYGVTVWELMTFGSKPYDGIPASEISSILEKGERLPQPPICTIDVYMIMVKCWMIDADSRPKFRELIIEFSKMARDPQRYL
Procedure: Enzyme-linked immunosorbent assay (ELISA) was employed to evaluate the inhibition of compounds against EGFR. The ELISA screening was performed following the instruction provided by the supplier of the assay kits (no. 7909, Cell Signaling Technology, Inc.). An aliquot (10 μl) of the enzyme solution was added to 415 μl dithiothreitol (DTT) kinase buffer, which consists of 1.25 M DTT and 4 × HTScan® tyrosine kinase buffer [240 mM HEPES (pH 7.5), 20 mM MgCl2, 20 mM MnCl2, and 12 μM Na3VO4]. Each tested Pt compound was dissolved in dimethyl sulfoxide (DMSO) to give a 4 mM solution which was then diluted by deionized water prior to use. The ATP/peptide mixture was prepared by addition of 10 μl of 2.5 mM ATP to 125 μl of 6 μM substrate peptide and then diluted with D2O to 250 μl. An aliquot (12.5 μl) of the solution of a tested compound was mixed with as-prepared EGFR (kinase domain only) solution [12.5 μl, in 50% glycerol, containing 50 mM HEPES (pH = 7.6), 150 mM NaCl, 0.1% Triton, and 1 mM DTT, Sigma Chemical Company] and incubated at 298 K for 5 min, followed by addition of 25 μl of ATP/substrate mixture, and then the resulting mixture was incubated at 310 K for 1 h. The phosphorylation reaction was terminated by the addition of 50 μl/well stop buffer (50 mM EDTA, pH = 8). Each well of a microtiter plate was coated with 100 μl of 10 μg/ml streptavidin (Tianjin Biotechnology Co. Ltd., China) in carbonate–bicarbonate buffer and incubated overnight at 277 K and then blocked with 1.5% bovine serum albumin (BSA, Xinjingke Biotechnology Co. Ltd., China) in PBS/T (PBS solution containing 0.05% Tween-20) at 310 K for 2 h, followed by three times of washing with PBS/T prior to use. Then, 25 μL/well of each enzymatic reaction mixture and 75 μL/well of D2O were added to the plate (in triplicate) for incubation at 310 K for 1 h. Following three times of washing with PBS/T, 100 μl of primary antibody (phospho-tyrosine mouse mAb, 1:1,000 in PBS/T with 1.5% BSA) was added to each well, and the plate was incubated at 310 K for another 1 h. The plate was again washed three times with PBS/T, and then 100 μl of the secondary antibody (HRP-labeled goat anti-mouse IgG, from Zhongshan Golden Bridge Biotechnology Co. Ltd., China, diluted 1:1,000 in PBS/T with 1.5% BSA) was added to each well and incubated for 1 h at 310 K, followed by three times of washing with PBS/T. Finally, 100 μl of 3,3′,5,5′-tetramethylbenzidine (TMB, Xinjingke Biotechnology Co. Ltd., China) substrate was added to each well, and the plate was incubated at 310 K for 15 min, and then the reaction was stopped by addition of 100 μl of 2 M H2SO4 to each well, and the plate was read on the ELISA plate reader (SpectraMax M5 Molecular Devices Corporation) at 450 nm to determine the OD values. […]

[3] = test system: A549 cisplatin-resistant subline A549/DDP; assay: MTT antiproliferation assay, A549/DDP; conditions: read-out: IC50 to cell lines, A549/DDP, exposed to tested compounds for 48 h
Procedure: (§2) The cancer cell lines HeLa, A549, MCF-7, and A431 were obtained from the Center for Cell Resource of Peking Union Medical College Hospital, except that A549 cisplatin-resistant subline A549/DDP was obtained by incubation of increased concentration of cisplatin in the culture media until the IC50 value toward cisplatin was above three times of that of A549 cells. The cells were maintained in DMEM (Invitrogen, USA) media supplemented with 10% fetal calf serum (HyClone, USA), 1% PS at 310 K with 5% CO2. The IC50 values were determined using 3-(4,5-dimethyl-2-thiazolyl)-2,5-diphenyl-2-H-tetrazolium bromide (MTT) assay. […] Then cells were exposed to each tested compound at eight concentrations for 48 h. The resulting solution was removed and washed for two times using PBS; then 100 μl cell culture medium containing MTT (0.5 mg/ml) was added to the wells and incubated at 310 K for 4 h. Finally, the MTT media was removed and 100 μl DMSO added to each well to dissolve the formazan crystals. The optical density (OD) values were measured using a microplate reader (SpectraMax M5) at the wavelength of 570 nm. […] The IC50 value was calculated in Origin 8.0 using the logistic regression model. All reported values were averages of six independent experiments and expressed as mean ± standard deviation (SD).

[4] = test system: HeLa cells; assay: MTT antiproliferation assay, HeLa; conditions: read-out: IC50 to cell lines, HeLa, exposed to tested compounds for 48 h
Procedure: as §2

[5] = test system: calf thymus DNA (ct-DNA); assay: Competitive displacement of EB from ct-DNA by fluorescence titration (intercalation); type: binding; conditions: Tris-HCl pH 7.4, 310 K, λex = 500 nm
Procedure: as §1

[6] = test system: MCF-7 cells; assay: MTT antiproliferation assay, MCF-7; conditions: read-out: IC50 to cell lines, MCF-7, exposed to tested compounds for 48 h
Procedure: as §2

[7] = test system: A549 cells; assay: MTT antiproliferation assay, A549; conditions: read-out: IC50 to cell lines, A549, exposed to tested compounds for 48 h
Procedure: as §2

[8] = test system: A431 cells; assay: MTT antiproliferation assay, A431; conditions: read-out: IC50 to cell lines, A431, exposed to tested compounds for 48 h
Procedure: as §2

Structure (SMILES)	affinity in minor groove binding relative to intercalation with DNA [1]	Ksv (Stern–Volmer quenching constant), replacing Hoechst from ct-DNA [1] [M⁻¹]	IC50 [2] [µM]	IC50 [3] [µM]	IC50 [4] [µM]	Ksv (Stern–Volmer quenching constant), replacing EB from ct-DNA [5] [M⁻¹]	IC50 [6] [µM]	IC50 [7] [µM]	IC50 [8] [µM]
COc1cc2ncnc(Nc3ccc(F)c(Cl)c3)c2cc1OCCCn1cc[n+]([Pt-2]23[n+]4ccccc4-c4cc(-c5ccc(C)cc5)cc([n+]42)-c2cccc[n+]23)c1.F[P-](F)(F)(F)(F)F.F[P-](F)(F)(F)(F)F [Complex 2]	~ 10 times	313000	0.007 ± 0.003	13.5 ± 1.8	19.4 ± 5.6	25900	27.7 ± 2.2	6.5 ± 2.5	1.4 ± 0.4
COc1cc2ncnc(Nc3ccc(F)c(Cl)c3)c2cc1OCCn1cc[n+]([Pt-2]23[n+]4ccccc4-c4cc(-c5ccc(C)cc5)cc([n+]42)-c2cccc[n+]23)c1.F[P-](F)(F)(F)(F)F.F[P-](F)(F)(F)(F)F [Complex 1]	–	–	0.0092 ± 0.0006	28.9 ± 1.7	29.8 ± 5	–	20.3 ± 2.7	13.2 ± 1.8	7.7 ± 1.8
COc1cc2ncnc(Nc3ccc(F)c(Cl)c3)c2cc1OCCn1cc[n+]([Pt-2]23[n+]4ccccc4-c4cc(-c5ccc(Br)cc5)cc([n+]42)-c2cccc[n+]23)c1.F[P-](F)(F)(F)(F)F.F[P-](F)(F)(F)(F)F [Complex 3]	–	–	0.0109 ± 0.003	32 ± 1.6	13.4 ± 1.3	–	24.8 ± 1.1	12.2 ± 2.2	7.4 ± 0.4
COc1cc2ncnc(Nc3ccc(F)c(Cl)c3)c2cc1OCCCn1cc[n+]([Pt-2]23[n+]4ccccc4-c4cc(-c5ccc(Br)cc5)cc([n+]42)-c2cccc[n+]23)c1.F[P-](F)(F)(F)(F)F.F[P-](F)(F)(F)(F)F [Complex 4]	~ 10 times	311000	0.0096 ± 0.0025	26.6 ± 3	39.4 ± 0.1	18900	19.9 ± 2.7	11.6 ± 1.1	7.9 ± 3.2
N.N.[Cl][Pt][Cl] [Cisplatin, reference compound]	–	–	–	30.9 ± 1.1	12.9 ± 0.6	–	15.6 ± 0.8	10.1 ± 1.6	11.1 ± 0.4
